Reference: US20260355357A1, “DIAGNOSTIC AGENTS AND USES THEREOF” (HADASIT MEDICAL RESEARCH SERVICES AND DEVELOPMENT LTD., priority 2023, published 2026)
Where “and” joins values, the source holds several entries; their conditions need not be identical. Identical values can stand only once. Like-named read-outs stand apart in the source and are kept apart here. Marks after values point to notes of the source that are not given here.

Key:
[1] = Deuteron T1 determined by Inversion Recovery technique (5.8T, saline); format: physicochemical; conditions: for T1 relaxation time of deuterons at D site / HDO T1: 5.8T, saline
Description: Example 1: Determinations of Deuterons T1 in Sugar Molecules
Table 1 describes the difference in T1 of deuterons in water (HDO, natural abundance) and in sites labelled with deuterons in various molecules that were determined using an Inversion Recovery technique. […] PGP-47 TI

brain slices = experiment: [6,6-D2]D-glucose uptake and metabolism in perfused brain slices, deuterium NMR; format: in vitro ADME, rat (male Sprague-Dawley); conditions: for D-Glc before 1st ischemia: group A; for Minimum D-Glc during 1st ischemia: group B, 10 min perfusion arrest; for Maximal difference of D-Glc before and during 1st ischemia: group B′; for D-Glc in between ischemic conditions: group C; for Minimum D-Glc during 2nd ischemia: group D; for Maximal difference of D-Glc before and during 2nd ischemia: group D′; for D-Glc after 2nd ischemic condition: group E; for D-Lac before 1st ischemia: group F; for Maximal D-Lac during 1st ischemia: group G; for D-Lac in between ischemic conditions: group H; for Maximal D-Lac during 2nd ischemia: group I; for D-Lac after 2nd ischemic condition: group J
Source text: Male Sprague-Dawley rats (n=4, 70-100 g) were obtained from the Hebrew University Authority of Biological and Biomedical Models. The joint ethics committee (IACUC) of the Hebrew University and Hadassah Medical Center approved the study protocol for animal welfare. The Hebrew University is an AAALAC International accredited institute. Care was taken to minimize the animals' pain and discomfort. Animals were housed in the animal facilities 3-5 days after delivery for acclimatization and fed ad libitum. On the experimental day, animals were transferred to the laboratory and anesthetized within one hour of arrival.
To improve the health of acute brain slices obtained from mature adult rats, we modified a slice preparation technique optimized for in vitro electrophysiology in mature adult rat brain slices. In brief, slice health is improved by a so-called “protective recovery” method. NMDG is an extracellular replacer of sodium ions that prevents sodium ions and water influx into cells, the primary insult causing cell death following brain slicing. […] Furthermore, incubation in HEPES-buffered artificial cerebrospinal fluid (aCSF) improved slice health. The following solutions were prepared in the current study, and their use is described in the sections below.
NMDG-aCSF was used for transcardial perfusion, tissue slicing, and slice recovery. This medium contained 93 mM NMDG, 2.5 mM KCl, 1.2 mM NaH2PO4, 26 mM NaHCO3, 20 mM HEPES, 25 mM D-glucose, 10 mM MgSO4, 0.5 mM CaCl2, 5 mM ascorbic acid, 2 mM thiourea, and 3 mM pyruvic acid in double distilled water.
HEPES-holding aCSF was used to incubate slices following the surgical procedure. This medium contained 84 mM NaCl, 2.5 mM KCl, 1.2 mM NaH2PO4, 30 mM NaHCO3, 20 mM HEPES, 25 mM Glc (D-glucose, non-labeled), 2 mM MgSO4, 2 mM CaCl2, 5 mM ascorbic acid, 2 mM thiourea, and 3 mM pyruvic acid in double distilled water.
Perfusion aCSF was used for perfusion in the NMR spectrometer. This medium contained 115 mM NaCl, 2.5 mM KCl, 1.2 mM NaH2PO4, 24 mM NaHCO3, 5 mM HEPES, 10 mM Glc (to be replaced with 10 mM D-Glc), 2 mM MgSO4, and 2 mM CaCl2 in double distilled water.
All three solutions (1-3) were bubbled with 95%/5% O2/CO2 for at least one hour before use and titrated to a pH of 7.35-7.45 using HCl or NaOH. All concentrations were optimized for a calculated osmolarity of 310±15 mOsm.
Brain slices were extracted and maintained using the above solutions as previously described. Briefly, the rats were anesthetized using a gas anesthesia system (Somnosuite, Kent Scientific, Torrington, CT, USA). Induction was performed in a chamber with 3.5% isoflurane in room air with a flow rate of 440 mL/min. Following 4-7 min of induction, anesthesia was maintained with 3.1-3.2% isoflurane at the same flow rate. Upon obtaining a negative pedal pain reflex, surgery was initiated. First, the diaphragm was exposed and cut, and the rat was transcardially perfused with 30 mL of ice-cold NMDG-aCSF (Solution 1). The animals were then sacrificed by decapitation, and the brain was rapidly removed and placed in ice-cold NMDG-aCSF (Solution 1). The cerebrum was then cut into four parts (first, a sagittal cut along the hemispheric cleft and then a sagittal cut in the middle of each hemisphere). From each part, 350 μm slices were prepared using a McIlwain tissue chopper (The Mickle Laboratory Engineering Company Ltd., Surrey, UK). The process of brain extraction, from decapitation till the brain was in ice-cold NMDG-aCSF, took under 2 min, and the slicing procedure was done in less than 10 min. After cutting, the slices were transferred to warm, 32-34 °C, NMDG-aCSF (Solution 1) for 12 min for protective recovery. Then, the slices were transferred to HEPES-holding aCSF (Solution 2) at ~32 °C for 15-40 min incubation before transfer to the NMR spectrometer, where the slices were perfused with the aCSF of Solution 3. […]

[2] = Biodistribution of deuterated 2-deoxy-D-glucose, 2H-NMR of tissue extracts, mice; format: in vivo, mouse; conditions: [D2]DDG bolus i.v., 169-182 mg/kg (non-labeled 2DG equivalent)
Description: (§1) Mice and rats, males and females at equal numbers, were intravenously injected with a bolus of varying doses of deuterated 2-deoxy-D-glucose (2-DG, DDG, with varying numbers and positions of deuteration). DDGs were provided by CortecNet, France. The injection was performed under sedation in all rats (18) and in 12 of 18 mice, after which the animals woke up within 1 minute. […] Further to euthanasia, the brain, liver, kidneys, heart, and muscle were excised and immediately placed in liquid nitrogen. The frozen tissue samples were kept at −80 °C until further processing.
Extraction of the water-soluble metabolites and the lipids was carried out using the dual-phase extraction procedure as described previously [Katz-Brull R, et al. Differential routing of choline in implanted breast cancer and normal organs. Article. Magnetic Resonance in Medicine. July 2001; 46(1):31-38. doi:10.1002/mrm.1157]. Briefly, a frozen sample is placed in 10 mL of ice-cold methanol containing 0.4 mM phenyl phosphonic acid for at least 1 hour. The tissue is then homogenized in ice-cold methanol using a tissue homogenizer. Equal volumes of chloroform and water are then added to the sample tube, and the mixture is vortexed and vigorously shaken. The samples are allowed to stand at 4 °C for at least 24 hours for phase separation. The methanol-water phase is aspirated, treated with Chelex to remove divalent ions, and then lyophilized for at least 24 hours. When the samples are dry (as powder), they are redissolved in 0.5 mL of double-distilled water and transferred to 5-mm NMR tubes for scanning. The samples are scanned in a 9.4 T NMR spectrometer.

[3] = Adverse effects after bolus intravenous injection of DDG, mice; format: in vivo, mouse; conditions: bolus i.v., 37 mg/kg to 248 mg/kg (mice and rats), awake up to 78 min
Description: as §1
(§2) The animals were observed awake for up to 78 min after the injection. The injection bolus was administered in less than 1 s and ranged from 0.1 mL for mice (ca. 25-40 g) to 0.6 mL for rats (ca. 120-160 g).

[4] = Adverse effects after bolus intravenous injection of DDG, rats; format: in vivo, rat; conditions: bolus i.v., 37 mg/kg to 248 mg/kg (mice and rats), awake up to 78 min
Description: as §1, §2

[5] = position 1 (aliphatic), 16-17 °C
[6] = position 2 (aliphatic), 16-17 °C

OC[C@H]1OC(O)[C@H](O)[C@@H](O)[C@@H]1O (stereo partly drawn) [D-Glc, [6,6-D2]D-glucose]
T1 relaxation time of deuterons at D site ([1]; aliphatic, 16-17 °C): 53 ^c ms | time for return to baseline level upon reperfusion (brain slices; after 1st ischemic condition): ≤ 8 min | time for return to baseline level upon reperfusion (brain slices; after 2nd ischemic condition): ≤ 8 min | time for D-Glc signal to reach plateau (brain slices; after administration of D-Glc to perfusion medium): ≤ 6 min | maximal decrease in the D-Glc concentration (brain slices; both ischemic conditions, n=6): 4.3 ± 0.9 mM | conversion of available D-Glc (brain slices; during the ischemic conditions): fully converted to D-Lac | D-Glc before 1st ischemia (brain slices; average ± SD, n=3): 8.6 ± 0.7 mM | D-Glc before 1st ischemia (brain slices; individual animals): 9.3 mM and 8.8 mM and 7.6 mM | Minimum D-Glc during 1st ischemia (brain slices; average ± SD, n=3): 4.6 ± 1.5 mM | Minimum D-Glc during 1st ischemia (brain slices; individual animals): 4.7 mM and 6.4 mM and 2.8 mM | Maximal difference of D-Glc before and during 1st ischemia (brain slices; average ± SD, n=3): 3.9 ± 1.3 mM | Maximal difference of D-Glc before and during 1st ischemia (brain slices; individual animals): 4.6 mM and 2.4 mM and 4.8 mM | D-Glc in between ischemic conditions (brain slices; average ± SD, n=3): 8.7 ± 0.7 mM | D-Glc in between ischemic conditions (brain slices; individual animals): 9.5 mM and 8.6 mM and 7.9 mM | Minimum D-Glc during 2nd ischemia (brain slices; average ± SD, n=3): 4.1 ± 0.5 mM | Minimum D-Glc during 2nd ischemia (brain slices; individual animals): 4.6 mM and 4.2 mM and 3.4 mM | Maximal difference of D-Glc before and during 2nd ischemia (brain slices; average ± SD, n=3): 4.6 ± 0.3 mM | Maximal difference of D-Glc before and during 2nd ischemia (brain slices; individual animals): 4.9 mM and 4.4 mM and 4.5 mM | D-Glc after 2nd ischemic condition (brain slices; average ± SD, n=3): 9.3 ± 1.1 mM | D-Glc after 2nd ischemic condition (brain slices; individual animals): 10.8 mM and 8.8 mM and 8.2 mM | D-Glc in between 2nd and 3rd ischemic conditions (brain slices; group K, animal 3): 8.3 mM | Minimum D-Glc during 3rd ischemia (brain slices; group L, animal 3, 64 min ischemia): 1.2 mM | Maximal difference of D-Glc before and during 3rd ischemia (brain slices; group L′, animal 3): 7.1 mM | D-Glc after 3rd ischemic condition (brain slices; group M, animal 3): 9.1 mM

[2H]C([2H])C(O)C(=O)O [D-Lac, [3,3-D2]lactate]
time for return to baseline level upon reperfusion (brain slices; after 1st ischemic condition): ≤ 8 min | D-Lac accumulation within the cells due to ischemic conditions (brain slices; after 2nd reperfusion vs before and between ischemic conditions): did not accumulate within the cells due to the ischemic conditions | time of first observation of D-Lac signal (brain slices; after D-Glc administration): ≤ 8 min | time for D-Lac to reach plateau (brain slices; after D-Glc administration, n=3): 12 to 14 min | increase in D-Lac concentration (brain slices; both ischemic conditions, n=6): 5.5 ± 1.1 mM | D-Lac level without perfusion arrest (brain slices; control experiment, no ischemic conditions): constant throughout | D-Lac before 1st ischemia (brain slices; average ± SD, n=3): 0.9 ± 0.4 mM | D-Lac before 1st ischemia (brain slices; individual animals): 0.4 mM and 1.02 mM and 1.4 mM | Maximal D-Lac during 1st ischemia (brain slices; average ± SD, n=3): 5.1 ± 1.3 mM | Maximal D-Lac during 1st ischemia (brain slices; individual animals): 4.8 mM and 3.7 mM and 6.8 mM | D-Lac in between ischemic conditions (brain slices; average ± SD, n=3): 1.1 ± 0.3 mM | D-Lac in between ischemic conditions (brain slices; individual animals): 0.67 mM and 1.29 mM and 1.41 mM | Maximal D-Lac during 2nd ischemia (brain slices; average ± SD, n=3): 5.91 ± 0.12 mM | Maximal D-Lac during 2nd ischemia (brain slices; individual animals): 5.85 mM and 6.07 mM and 5.80 mM | D-Lac after 2nd ischemic condition (brain slices; average ± SD, n=3): 1.6 ± 0.4 mM | D-Lac after 2nd ischemic condition (brain slices; individual animals): 1.08 mM and 1.50 mM and 2.16 mM | Maximal D-Lac during 3rd ischemia (brain slices; group N, animal 3, 64 min ischemia): 10.2 mM | D-Lac after 3rd ischemia (brain slices; group O, animal 3): 2.7 mM | D-Lac signal in medium without brain slices relative to D-Lac in NMR tube with slices (brain slices; perfusion medium, five h, no perfusion arrest): 2.2%

[2H]O [HDO]
HDO T1 ([1]; HDO in the solution of [13C6, D7]glucose, 20 °C): 279 ms | HDO T1 ([1]; HDO in the solution of the compound on that line, 16-17 °C): 420 ms and 437 ms and 422 ms and 410 ms | HDO's T1 ([1]; summary of Table 1): ca. 400 ms

C[N+](C)(C)CCO [[2-^13C,1,1,2,2-D4]choline chloride]
T1 relaxation time of deuterons at D site [1, 5]: 422 ms | T1 relaxation time of deuterons at D site [1, 6]: 404 ms

[2H]C([2H])(O)[C@H]1OC(O)C[C@@H](O)[C@@H]1O (stereo partly drawn) [[D2]DDG, [6,6-D2]2-deoxy-D-glucose]
concentration ([2]; n=1, read-out: concentration in the liver): 400 µM | concentration ([2]; n=2, read-out: concentration in the brain): 1190 µM | adverse effects [3]: no adverse effects | adverse effects [4]: no adverse effects

N[C@@H](Cc1ccc(O)cc1)C(=O)O [[D7]tyrosine]
T1 relaxation time of deuterons at D site ([1]; aliphatic, 16-17 °C): 48 ms | T1 relaxation time of deuterons at D site ([1]; aromatic, 16-17 °C): 43 ms

[2H]C1(O)O[C@]([2H])(C([2H])([2H])O)[C@@]([2H])(O)[C@]([2H])(O)C1([2H])[2H] (stereo partly drawn) [[D8]DDG, [1,2,2,3,4,5,6,6-D8]2-deoxy-D-glucose]
adverse effects [3]: no adverse effects | adverse effects [4]: no adverse effects

C[N+](C)(C)CCO [[D13]choline bromide]
T1 relaxation time of deuterons at D site [1, 5]: 389 ms | T1 relaxation time of deuterons at D site [1, 6]: 396 ms | T1 relaxation time of deuterons at D site ([1]; position 3 (aliphatic), 16-17 °C): 382 ms

OC[C@H]1OC(O)[C@H](O)[C@@H](O)[C@@H]1O (some centres unmarked) [[^13C6, D7]glucose]
T1 relaxation time of deuterons at D site ([1]; aliphatic + ring, 20 °C): 56 ms

N[C@@H](Cc1ccc(O)cc1)C(=O)O [[^13C9, D7, ^15N]tyrosine]
T1 relaxation time of deuterons at D site ([1]; aliphatic, 16-17 °C): 45 ms | T1 relaxation time of deuterons at D site ([1]; aromatic, 16-17 °C): 45 ms
